Patent US9139568B2 (Merck Patent GmbH, priority 2011, dated 2015)

What follows are compounds tested against P70S6K (Homo sapiens (Human), UniProt P23443, T412E) (assay: P70S6K Enzyme Assay). Conditions: P70S6K T412E mutant, 24 μM ATP, mobility shift (Caliper).
Chain of P70S6K (P23443 1-421 T412E): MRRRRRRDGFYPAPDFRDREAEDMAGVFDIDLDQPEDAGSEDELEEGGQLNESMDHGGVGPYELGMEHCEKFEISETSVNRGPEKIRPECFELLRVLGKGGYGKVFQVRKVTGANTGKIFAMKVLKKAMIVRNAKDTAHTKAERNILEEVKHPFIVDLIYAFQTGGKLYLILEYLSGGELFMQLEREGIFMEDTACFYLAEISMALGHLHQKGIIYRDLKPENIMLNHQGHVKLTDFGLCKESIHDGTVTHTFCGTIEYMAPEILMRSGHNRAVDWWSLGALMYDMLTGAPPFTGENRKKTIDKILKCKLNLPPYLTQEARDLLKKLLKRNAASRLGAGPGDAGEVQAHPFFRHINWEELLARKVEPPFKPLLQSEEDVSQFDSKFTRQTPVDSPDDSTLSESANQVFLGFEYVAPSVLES
Assay type: biochemical
Description: P70S6K inhibitor compounds are diluted and plated in 96 well plates. […] The reaction is incubated for 90 min at 25° C., before the addition of 10 mM EDTA to stop the reaction. The proportion of substrate and product (phosphorylated) peptide is analysed on a Caliper Life Sciences Lab Chip 3000, using a pressure of −1.4 psi, and upstream and downstream voltages of −3000 and −700 respectively. Product peaks are resolved before substrate peaks on the resulting chromatograms.
`NC(=O)c1ccc(N[C@@H]2CNCC[C@H]2c2ccc(C(F)(F)F)c(F)c2)c2cncnc12` (single isomer, unassigned) [Example 6] showed an IC50 of 0.054 µM. With `NC(=O)c1ccc(N[C@@H]2CNC[C@@H]2c2cccc(OC(F)(F)F)c2)c2cccnc12` (racemic) [Example 24, 5-((-4-(3-(trifluoromethoxy)phenyl)pyrrolidin-3-yl)amino)quinoline-8-carboxamide] the IC50 was 0.023 µM. With `NC(=O)c1ccc(N2CC[C@](N)(C(=O)Nc3ccccc3)C2)c2cncnc12` (single isomer, unassigned) [Example 85] the IC50 was 11.5 µM. For `NC(=O)c1ccc(N2CC[C@H](c3cccc(F)c3)[C@@H](N)C2)c2cncnc12` (racemic) [Example 89, 5-[(3R,4R)-3-Amino-4-(3-fluoro-phenyl)-piperidin-1-yl]-quinazoline-8-carboxylic acid amide], the IC50 was 2.4 µM. Work on `NC(=O)c1ccc(N2CCC(N)(C(=O)Nc3cccc(F)c3)C2)c2cncnc12` (racemic) [Example 45, 5-(3-amino-3-((3-fluorophenyl)carbamoyl)pyrrolidin-1-yl)quinazoline-8-carboxamide] yielded an IC50 of 2 µM. `NC(=O)c1ccc(N2CCC(NC(=O)Cc3ccccc3)C2)c2cncnc12` (racemic) [Example 47, 5-(3-(2-phenylacetamido)pyrrolidin-1-yl)quinazoline-8-carboxamide] gave an IC50 of 7.9 µM. Work on `NC(=O)c1ccc(N2CCC(CNC(=O)c3ccc(F)cc3F)C2)c2cncnc12` (racemic) [Example 112, 5-{3-[(2,4-Difluoro-benzoylamino)-methyl]-pyrrolidin-1-yl}-quinazoline-8-carboxylic acid amide] yielded an IC50 of 0.26 µM. For `NC(=O)c1ccc(N2CC[C@H](c3ccc(F)cc3)[C@H](N)C2)c2cncnc12` (racemic) [Example 86, 5-[(3S,4R)-3-Amino-4-(4-fluoro-phenyl)-piperidin-1-yl]-quinazoline-8-carboxylic acid amide], the IC50 was 0.25 µM. `NC(=O)c1ccc(N2CCC(N)(C(=O)Nc3ccc(F)c(F)c3)C2)c2cncnc12` (racemic) [Example 44, 5-(3-amino-3-((3,4-difluorophenyl)carbamoyl)pyrrolidin-1-yl)quinazoline-8-carboxamide] gave an IC50 of 1.3 µM. `NC(=O)c1ccc(NC2CNC[C@@H]2c2cccc(OC(F)(F)F)c2)c2cccnc12` (single isomer, unassigned) [Example 22] gave an IC50 of 0.031 µM. `NC(=O)c1ccc(NCc2cc(F)c(F)c(F)c2)c2cccnc12` [Example 36, 5-(3,4,5-trifluorobenzylamino)-quinoline-8-carboxamide] was tested, and the IC50 was > 1 µM. `NC(=O)c1ccc(N[C@@H]2CNC[C@H]2c2cccc(OC(F)(F)F)c2)c2cccnc12` (single isomer, unassigned) [Example 23] was tested, and the IC50 was 0.69 µM. Compound `NC(=O)c1ccc(N2CCN(c3ccc(Cl)cc3)CC2)c2cncnc12` [Example 93, 5-[4-(4-chloro-phenyl)-piperazin-1-yl]-quinazoline-8-carboxylic acid amide] has an IC50 of 1 µM. With `NC(=O)c1ccc(N2CCC(NC(=O)c3cccc(C(F)(F)F)c3)C2)c2cncnc12` (racemic) [Example 48, 5-(3-(3-(trifluoromethyl)benzamido)pyrrolidin-1-yl)quinazoline-8-carboxamide] the IC50 was 2.2 µM. For `NC(=O)c1ccc(NCC2(C(=O)Nc3ccccc3)CCNCC2)c2cncnc12` [Example 14, 5-(((4-(phenylcarbamoyl)piperidin-4-yl)methyl)amino)quinazoline-8-carboxamide], the IC50 was > 1 µM. `NC(=O)c1ccc(N2CCNC(c3ccccc3)C2)c2cccnc12` (racemic) [Example 18, 5-(3-phenylpiperazin-1-yl)quinoline-8-carboxamide] gave an IC50 of 0.67 µM. In the case of `NC(=O)c1ccc(N2CCC(N)(CNC(=O)c3ccc(F)cc3F)C2)c2cncnc12` (racemic) [Example 9, 5-(3-amino-3-((2,4-difluorobenzamido)methyl)pyrrolidin-1-yl)quinazoline-8-carboxamide], the IC50 is reported as > 1 µM. Compound `NC(=O)c1ccc(NC2CNC[C@@H]2c2ccc3cccnc3c2)c2cccnc12` (mixture of isomers) [Example 17, 5-((-4-(quinolin-7-yl)pyrrolidin-3-yl)amino)quinoline-8-carboxamide] has an IC50 of 0.19 µM. Work on `NC(=O)c1ccc(NC2CNCCC2c2ccccc2)c2cncnc12` (racemic) [Example 3, 5-((4-phenylpiperidin-3-yl)amino)quinazoline-8-carboxamide] yielded an IC50 of 0.0041 µM. `NC(=O)c1ccc(NC2CNC[C@@H]2c2cc(F)cc(Cl)c2)c2cncnc12` (mixture of isomers) [Example 2, 5-((4-(3-chloro-5-fluorophenyl)pyrrolidin-3-yl)amino)quinazoline-8-carboxamide] gave an IC50 of 0.16 µM. `NC(=O)c1ccc(N2CCC(N)(C(=O)Nc3ccc(F)cc3)C2)c2cncnc12` (racemic) [Example 43, 5-[3-amino-3-[(4-fluorophenyl)carbamoyl]pyrrolidin-1-yl]quinazoline-8-carboxamide] was tested, and the IC50 was 1.2 µM. `CN(C)CCN(Cc1ccccc1)C(=O)C1CCN(c2ccc(C(N)=O)c3ncncc23)C1` (racemic) [Example 49, 5-(3-(benzyl(2-(dimethylamino)ethyl)carbamoyl)pyrrolidin-1-yl)quinazoline-8-carboxamide] showed an IC50 of 1.6 µM. Work on `NC(=O)c1ccc(NC2CNCCC2c2ccc(C(F)(F)F)c(F)c2)c2cncnc12` (racemic) [Example 4, 5-((4-(3-fluoro-4-(trifluoromethyl)phenyl)piperidin-3-yl)amino)quinazoline-8-carboxamide] yielded an IC50 of 0.0059 µM. For `NC(=O)c1ccc(NCc2ccc(F)c(F)c2)c2cccnc12` [Example 35, 5-(3,4-Difluorobenzylamino)-quinoline-8-carboxamide], the IC50 was > 1 µM. With `NC(=O)c1ccc(NCc2ccc(F)c(C(F)(F)F)c2)c2cccnc12` [Example 37, 5-(4-Fluoro-3-trifluoromethylbenzylamino)-quinoline-8-carboxamide] the IC50 was 0.695 µM. In the case of `COc1ccccc1N1CCN(c2ccc(C(N)=O)c3ncncc23)CC1` [Example 122, 5-[4-(2-methoxyphenyl)-piperazin-1-yl]-quinazoline-8-carboxylic acid amide], the IC50 is reported as 11 µM. In the case of `NC(=O)c1ccc(N2CCC(c3ccccc3)C(N)C2)c2cncnc12` (racemic) [Example 82, 5-(3-amino-4-phenylpiperidin-1-yl)quinazoline-8-carboxamide], the IC50 is reported as 0.12 µM. `NC(=O)c1ccc(N2CCC(CNC(=O)c3cc(F)ccc3F)C2)c2cncnc12` (racemic) [Example 106, 5-(3-((2,5-difluorobenzamido)methyl)pyrrolidin-1-yl)quinazoline-8-carboxamide] gave an IC50 of 0.51 µM. In the case of `NC(=O)c1ccc(NC2CNCCC2c2ccc(C(F)(F)F)c(F)c2)c2cncnc12` (single isomer, unassigned) [Example 5], the IC50 is reported as 0.0099 µM. `NC(=O)c1ccc(N2CC[C@H](CNC(=O)c3ccc(F)c(F)c3)C2)c2cncnc12` (single isomer, unassigned) [Example 114] was tested, and the IC50 was 0.47 µM. `NC(=O)c1ccc(NCc2ccc(F)cc2)c2cccnc12` [Example 31, 5-(4-Fluorobenzylamino)-quinoline-8-carboxamide] showed an IC50 of 0.875 µM. `NC(=O)c1ccc(N2CCC(NC(=O)Cc3ccc(F)cc3)C2)c2cncnc12` (racemic) [Example 51, 5-(3-(2-(4-fluorophenyl)acetamido)pyrrolidin-1-yl)quinazoline-8-carboxamide] showed an IC50 of 5.4 µM. For `NC(=O)c1ccc(N2CCC(CNC(=O)Cc3ccccc3)C2)c2cncnc12` (centres unmarked) [Example 118], the IC50 was 0.26 µM. `Cc1ccccc1N1CCN(c2ccc(C(N)=O)c3ncncc23)CC1` [Example 120, 5-[4-(2-methyl-phenyl)-piperazin-1-yl]-quinazoline-8-carboxylic acid amide] showed an IC50 of 0.98 µM. Compound `NC(=O)c1ccc(NCc2ccccc2)c2cccnc12` [Example 42, 5-(Benzylamino)quinoline-8-carboxamide] has an IC50 of 0.68 µM. In the case of `NC(=O)c1ccc(N2CC[C@@](N)(C(=O)Nc3ccccc3)C2)c2cncnc12` (single isomer, unassigned) [Example 84], the IC50 is reported as 2.15 µM. `NC(=O)c1ccc(NCCc2ccccc2)c2cccnc12` [Example 40, 5-(Phenylethylamino)-quinoline-8-carboxamide] was tested, and the IC50 was > 1 µM. `NC(=O)c1ccc(NCc2ccc(Cl)c(C(F)(F)F)c2)c2cccnc12` [Example 38, 5-(4-Chloro-3-trifluoromethylbenzylamino)-quinoline-8-carboxamide] was tested, and the IC50 was > 1 µM. Compound `NC(=O)c1ccc(NC2CNC[C@@H]2C(=O)Nc2cccc(F)c2)c2cncnc12` (mixture of isomers) [Example 13, 5-((-4-((3-fluorophenyl)carbamoyl)pyrrolidin-3-yl)amino)quinazoline-8-carboxamide] has an IC50 of 0.29 µM. For `NCC1(C(=O)Nc2ccccc2)CCCN(c2ccc(C(N)=O)c3ncncc23)C1` (racemic) [Example 11, 5-(3-(aminomethyl)-3-(phenylcarbamoyl)piperidin-1-yl)quinazoline-8-carboxamide], the IC50 was > 1 µM. For `NC(=O)c1ccc(NC(=O)C2NC[C@@H]2c2ccccc2)c2cccnc12` (stereo partly drawn) [Example 30, 5-((3S)-3-phenylazetidine-2-carboxamido)quinoline-8-carboxamide], the IC50 was > 1 µM. In the case of `NC(=O)c1ccc(NC2(c3ccccc3)CNC2)c2cccnc12` [Example 19, 5-((3-phenylazetidin-3-yl)amino)quinoline-8-carboxamide], the IC50 is reported as > 1 µM. For `NCC(c1ccc(C(F)(F)F)cc1)N1CCN(c2ccc(C(N)=O)c3ncncc23)CC1` (racemic) [Example 8, 5-(4-(2-amino-1-(4-(trifluoromethyl)phenyl)ethyl)piperazin-1-yl)quinazoline-8-carboxamide], the IC50 was 0.21 µM. `NC(=O)c1ccc(NC2CNC[C@@H]2c2cccc(OC(F)(F)F)c2)c2cccnc12` (mixture of isomers) [Example 21, 5-((-4-(3-(trifluoromethoxy)phenyl)pyrrolidin-3-yl)amino)quinoline-8-carboxamide] showed an IC50 of 0.022 µM.
